Results from US12186289B2, “Compositions for feeding a pregnant animal” (Nutreco IP Assets B.V., priority 2018, dated 2025).

Tested on: sows
Test: Example 1: top dress with a single ingredient fed to pregnant sows from day 80 of gestation to parturition; colostrum intake and gain of litters
Type: in vivo, pigs
Details: for Total colostrum intake per litter / Average daily gain to day 7, kg per litter: corrected for litter size, sorbic acid 5 g; for Total colostrum intake per litter: 100 g/day top dress, day 80 of gestation up to parturition, betaine 3 g daily, estimated by Theil et al. algorithm; for Average daily gain to day 7, kg per litter: betaine 3 g daily in 100 g top dress

SMILES	Average daily gain to day 7 compared to the control (in words)	Colostrum intake per litter compared to the control (in words)	Total colostrum intake per litter [g]	Average daily gain to day 7, kg per litter [kg per litter]
C[N+](C)(C)CC(=O)[O-] [Betaine, trimethylglycine]	negative effect	substantially lower	5784	16.1
CC=CC=CC(=O)O [Sorbic acid, 2,4-hexadienoic acid]	same result as the control	slightly lower	6227	18.2
